Molecular target: D(2) dopamine receptor (Rattus norvegicus, UniProt P61169)
Assay: Compound was tested for inhibitory activity against the binding of [3H]spiperone to Dopamine receptor D2 in rat striatal membranes
Type: cell membranes, Membrane

D(2) dopamine receptor, sequence (P61169 whole entry): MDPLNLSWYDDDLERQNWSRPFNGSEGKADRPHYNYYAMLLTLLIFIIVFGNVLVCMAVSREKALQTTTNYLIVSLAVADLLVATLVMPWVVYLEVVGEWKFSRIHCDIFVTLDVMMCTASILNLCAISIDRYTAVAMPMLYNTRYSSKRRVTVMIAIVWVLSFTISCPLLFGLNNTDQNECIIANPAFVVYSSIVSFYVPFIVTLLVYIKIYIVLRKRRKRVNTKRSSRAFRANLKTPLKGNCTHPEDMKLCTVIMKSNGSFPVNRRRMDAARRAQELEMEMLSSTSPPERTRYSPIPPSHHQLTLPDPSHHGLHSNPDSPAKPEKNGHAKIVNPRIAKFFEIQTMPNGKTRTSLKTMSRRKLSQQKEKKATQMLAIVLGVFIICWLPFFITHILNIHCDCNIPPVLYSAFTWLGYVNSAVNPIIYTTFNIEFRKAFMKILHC

SMILES: C[N+](C)(C)CCCN1c2ccccc2Sc2ccc(Cl)cc21
- Ki: 2150 nM

SMILES: C[S+](C)CCCN1c2ccccc2Sc2ccc(Cl)cc21
- Ki: 280 nM

Source: ChEMBL document CHEMBL1123935 (J Med Chem, 1987)
